Data from the NIST ThermoML archive (doi:10.1016/j.jct.2017.10.004).
Numbers after ± are expanded uncertainties.

Columns and labels:
[1] = 100 kPa, Liquid; for electrical conductivity: Alternating current cell with electrodes; for viscosity: Capillary tube (Ostwald / Ubbelohde) method; for mass density: Vibrating tube method
[2] = xn = mol fraction of the nth substance listed; settings: 100 kPa, Liquid, x2 = 0; for viscosity: Capillary tube (Ostwald / Ubbelohde) method; for mass density: Vibrating tube method

## Cn1cc[n+](C)c1.O=S(=O)([N-]S(=O)(=O)C(F)(F)F)C(F)(F)F [1,3-dimethylimidazolium bis((trifluoromethyl)sulfonyl)amide]
[1]; 298.15 K
  electrical conductivity: 0.774 ± 0.023 S/m
  viscosity: 39.43 ± 1.6 mPa·s
  mass density: 1575.42 ± 4.7 kg/m3
[1]; 303.15 K
  electrical conductivity: 0.915 ± 0.027 S/m
  viscosity: 32.51 ± 1.3 mPa·s
  mass density: 1570.25 ± 4.7 kg/m3
[1]; 308.15 K
  electrical conductivity: 1.06 ± 0.032 S/m
  viscosity: 27.47 ± 1.1 mPa·s
  mass density: 1565.01 ± 4.6 kg/m3
[1]; 313.15 K
  electrical conductivity: 1.2 ± 0.036 S/m
  viscosity: 23.43 ± 0.95 mPa·s
  mass density: 1559.73 ± 4.6 kg/m3
[1]; 318.15 K
  electrical conductivity: 1.35 ± 0.041 S/m
  viscosity: 20.25 ± 0.82 mPa·s
  mass density: 1554.49 ± 4.6 kg/m3
[1]; 323.15 K
  electrical conductivity: 1.51 ± 0.045 S/m
  viscosity: 17.72 ± 0.72 mPa·s
  mass density: 1549.34 ± 4.6 kg/m3

## O=C1CCCO1 [γ-butyrolactone] + Cn1cc[n+](C)c1.O=S(=O)([N-]S(=O)(=O)C(F)(F)F)C(F)(F)F
[2]; 298.15 K
  viscosity: 1.71 ± 0.07 mPa·s
  mass density: 1124.59 ± 4.6 kg/m3
[2]; 303.15 K
  viscosity: 1.58 ± 0.06 mPa·s
  mass density: 1119.68 ± 4.6 kg/m3
[2]; 308.15 K
  viscosity: 1.47 ± 0.06 mPa·s
  mass density: 1114.78 ± 4.6 kg/m3
[2]; 313.15 K
  viscosity: 1.37 ± 0.06 mPa·s
  mass density: 1109.87 ± 4.6 kg/m3
[2]; 318.15 K
  viscosity: 1.28 ± 0.05 mPa·s
  mass density: 1104.96 ± 4.6 kg/m3
[2]; 323.15 K
  viscosity: 1.2 ± 0.05 mPa·s
  mass density: 1100.05 ± 4.6 kg/m3
